ChEMBL document CHEMBL1201862, “PubChem BioAssay data set” (2004)
Calls of active or inactive are those of the source.

Assays:
Estrogen receptor = biological target: T1, Estrogen receptor (Homo sapiens, UniProt P03372);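 note: potency for inhibiting coactivator peptide recruitment to the receptor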
T1 sequence (P03372 whole entry): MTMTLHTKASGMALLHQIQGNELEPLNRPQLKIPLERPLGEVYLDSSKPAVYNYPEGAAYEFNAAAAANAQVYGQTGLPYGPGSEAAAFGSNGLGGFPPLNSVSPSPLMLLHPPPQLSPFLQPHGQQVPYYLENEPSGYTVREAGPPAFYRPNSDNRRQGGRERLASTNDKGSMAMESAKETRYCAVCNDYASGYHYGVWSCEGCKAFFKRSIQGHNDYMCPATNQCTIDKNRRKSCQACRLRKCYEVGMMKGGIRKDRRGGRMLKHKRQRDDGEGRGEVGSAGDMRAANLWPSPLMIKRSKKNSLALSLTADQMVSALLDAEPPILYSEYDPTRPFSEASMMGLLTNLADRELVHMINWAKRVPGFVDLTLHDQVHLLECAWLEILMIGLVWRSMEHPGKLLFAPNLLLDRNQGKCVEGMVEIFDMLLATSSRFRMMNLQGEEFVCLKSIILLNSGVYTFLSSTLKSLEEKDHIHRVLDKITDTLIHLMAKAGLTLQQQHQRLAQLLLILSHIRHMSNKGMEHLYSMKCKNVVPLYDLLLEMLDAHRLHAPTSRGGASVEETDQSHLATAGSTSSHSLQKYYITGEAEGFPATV

Estrogen receptor beta [1] = biological target: T2, Estrogen receptor beta (Homo sapiens, UniProt Q92731);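 note: recombinant ER-beta bound to coactivator SRC1 peptide in presence of estradiol agonist; inhibitors block coactivator peptide binding and lower the FRET signal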
Estrogen receptor beta [2] = biological target: T2, Estrogen receptor beta; assay: ERβ–SRC-3 coactivator interaction inhibitors, confirmation, orthogonal assay, biochemical, ELISA, streptavidin-HRP readout (AID 1060)
[3] = biological target: Protein-tyrosine kinase 2-beta (Homo sapiens, UniProt Q14289);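 note: potency of inhibitors of PYK2 kinase phosphorylation of poly-GT substrate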
[4] = biological target: 5-hydroxytryptamine receptor 1A (Homo sapiens, UniProt P08908); format: functional
SUMO-activating enzyme [5] = biological target: T3, SUMO-activating enzyme (Homo sapiens, UniProt Q9UBT2); assay: SUMOylation inhibitor hit validation, confirmation, SUMOylation inhibitor project, biochemical, AlphaScreen (AID 2018); format: functional
SUMO-activating enzyme [6] = biological target: T3, SUMO-activating enzyme; assay: inhibitors of in vitro SUMOylation cascade, primary screen, biochemical, HTRF, uHTS (AID 2006); format: protein-complex assay
[7] = biological target: Aryl hydrocarbon receptor (Homo sapiens, UniProt P35869); assay: Luminescence-based cell-based high throughput dose response assay for activators of the Aryl Hydrocarbon Receptor (AHR). [Related pubchem assays: 2796 (Primary screen (AHR activators in singlicate)), 2845 (Confirmation screen (AHR activators in triplicate)), 434939 (Counterscreen (PXR activators in triplicate)), 2804 (Summary (AHR activators))]; format: ADME
[8] = biological target: T4, Calpain-2 catalytic subunit (Sus scrofa, UniProt P43367); assay: pig calpain II inhibitor potency, dose response, biochemical, fluorogenic peptide substrate (AID 1420); format: functional
T4 sequence (P43367 whole entry): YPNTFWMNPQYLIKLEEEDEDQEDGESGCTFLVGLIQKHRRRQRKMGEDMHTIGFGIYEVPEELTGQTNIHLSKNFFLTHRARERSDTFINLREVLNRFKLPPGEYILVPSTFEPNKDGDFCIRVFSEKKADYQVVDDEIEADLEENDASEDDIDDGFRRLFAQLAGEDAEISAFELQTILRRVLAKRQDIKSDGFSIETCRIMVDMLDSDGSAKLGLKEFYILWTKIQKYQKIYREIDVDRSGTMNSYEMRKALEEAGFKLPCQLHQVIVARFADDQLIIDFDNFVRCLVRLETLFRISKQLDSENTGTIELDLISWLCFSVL

[9] = biological target: Voltage-gated inwardly rectifying potassium channel KCNH2 (Homo sapiens, UniProt Q12809); assay: hERG protection from proarrhythmic block, potency, dose response, cell-based, thallium flux (AID 2121); format: ADME
[10] = biological target: Luciferin 4-monooxygenase (Photinus pyralis, UniProt P08659); assay: Counter Screen for Luciferase-based Assay Positives. [Related pubchem assays: 620, 618, 411 ]
HT-1080 = assay: cytotoxicity in HT1080 fibrosarcoma cells, cell-based, fluorescence readout (AID 620); format: functional; conditions: Homo sapiens
[11] = Late stage counterscreen results from the probe development effort to identify activators of signal transducer and activator of transcription 1 (STAT1): luminescence-based cell-based dose response assay to identify cytotoxic compounds.; format: functional
Troponin, cardiac muscle = Troponin, cardiac muscle (Homo sapiens, UniProt P19429+P45379+P63316); assay: Fluorescence-based biochemical high throughput dose response assay for activators of the calcium sensitivity of cardiac Regulated Thin Filaments (RTF). [Related pubchem assays (depositor defined):AID493008, AID493018, AID504382, AID504383]; format: protein-complex assay
[12] = biological target: T5, Rac GTPase-activating protein 1 (Homo sapiens, UniProt Q9H0H5); assay: MgcRacGAP GTPase-activating activity inhibitors, confirmation, biochemical, ADP Hunter fluorescence, primary and confirmatory (AID 624330); format: functional
T5 sequence (Q9H0H5 whole entry): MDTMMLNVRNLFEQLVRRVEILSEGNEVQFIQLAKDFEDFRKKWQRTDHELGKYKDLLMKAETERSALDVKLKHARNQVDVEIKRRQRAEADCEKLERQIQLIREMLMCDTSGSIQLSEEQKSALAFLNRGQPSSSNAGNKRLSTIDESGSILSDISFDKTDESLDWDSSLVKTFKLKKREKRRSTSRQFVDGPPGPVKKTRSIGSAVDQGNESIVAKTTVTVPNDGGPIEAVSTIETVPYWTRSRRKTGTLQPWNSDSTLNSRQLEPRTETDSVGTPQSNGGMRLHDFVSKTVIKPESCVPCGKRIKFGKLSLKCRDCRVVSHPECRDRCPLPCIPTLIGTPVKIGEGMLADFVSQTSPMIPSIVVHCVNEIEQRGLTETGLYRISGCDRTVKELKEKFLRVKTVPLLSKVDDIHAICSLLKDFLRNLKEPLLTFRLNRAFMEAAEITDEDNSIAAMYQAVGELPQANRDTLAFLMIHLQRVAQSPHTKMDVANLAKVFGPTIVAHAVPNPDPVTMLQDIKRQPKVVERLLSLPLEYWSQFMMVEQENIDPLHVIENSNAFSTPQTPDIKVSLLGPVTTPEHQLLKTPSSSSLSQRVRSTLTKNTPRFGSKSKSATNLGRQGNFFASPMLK

[13] = biological target: Transitional endoplasmic reticulum ATPase (Homo sapiens, UniProt P55072, C522A); assay: Luminescence counterscreen assay for p97 inhibitors: dose response biochemical high throughput screening assay to identify inhibitors of the C522A mutant p97 ATPase: synthesized compounds. [Related pubchem assays: 1481, 1517, 1551 ]
[14] = biological target: Transitional endoplasmic reticulum ATPase (Homo sapiens, UniProt P55072); assay: Luminescence dose response biochemical high throughput screening assay for inhibitors of the p97 ATPase: synthesized compounds. [Related pubchem assays: 1481, 1517 ]
[15] = M. tuberculosis H37Rv growth inhibitors, H37Rv strain (AID 1626); format: functional
[16] = biological target: Potassium voltage-gated channel subfamily KQT member 2 (Rattus norvegicus, UniProt O88943, W236L); assay: KCNQ2 channel potentiators, dose response, mechanism study for KCNQ2 potentiator project, cell-based, automated electrophysiology (AID 2603); format: functional
[17] = biological target: T6, Replicative DNA helicase DnaB (Mycobacterium tuberculosis, UniProt P9WMR3); assay: DnaB intein splicing inhibitors, dose response, biochemical, cell-free fluorescence (AID 449749); format: functional
T6 sequence (P9WMR3 whole entry): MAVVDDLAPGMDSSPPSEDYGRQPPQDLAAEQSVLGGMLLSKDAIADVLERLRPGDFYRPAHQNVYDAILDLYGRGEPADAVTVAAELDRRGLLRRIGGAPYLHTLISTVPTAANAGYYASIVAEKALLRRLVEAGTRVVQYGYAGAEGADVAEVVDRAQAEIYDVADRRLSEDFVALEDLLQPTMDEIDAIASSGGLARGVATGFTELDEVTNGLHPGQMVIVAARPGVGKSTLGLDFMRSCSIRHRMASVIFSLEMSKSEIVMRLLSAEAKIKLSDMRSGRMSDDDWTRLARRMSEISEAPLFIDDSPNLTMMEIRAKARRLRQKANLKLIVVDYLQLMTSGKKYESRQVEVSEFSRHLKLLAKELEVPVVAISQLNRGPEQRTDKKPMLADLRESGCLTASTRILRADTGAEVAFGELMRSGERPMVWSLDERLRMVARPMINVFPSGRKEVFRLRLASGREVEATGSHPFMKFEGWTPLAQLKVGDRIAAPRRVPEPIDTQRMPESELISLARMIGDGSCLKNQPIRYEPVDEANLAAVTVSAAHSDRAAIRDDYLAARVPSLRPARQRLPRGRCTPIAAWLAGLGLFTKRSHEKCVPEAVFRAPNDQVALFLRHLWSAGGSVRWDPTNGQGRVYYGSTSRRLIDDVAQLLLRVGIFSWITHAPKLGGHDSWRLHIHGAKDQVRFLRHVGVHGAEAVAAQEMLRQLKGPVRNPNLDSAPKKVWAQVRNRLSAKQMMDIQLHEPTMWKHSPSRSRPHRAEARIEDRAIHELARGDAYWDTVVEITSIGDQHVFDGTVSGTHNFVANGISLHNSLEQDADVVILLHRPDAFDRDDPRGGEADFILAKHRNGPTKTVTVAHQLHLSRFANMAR

Protein RecA = biological target: T7, Protein RecA (Mycobacterium tuberculosis, UniProt P9WHJ3); assay: Fluorescence Cell-Free Homogeneous Dose Retest to Identify Inhibitors of RecA-Intein Splicing Activity. [Related pubchem assays (depositor defined):AID2097, AID2223, AID489010, AID492950]; format: functional
T7 sequence (P9WHJ3 whole entry): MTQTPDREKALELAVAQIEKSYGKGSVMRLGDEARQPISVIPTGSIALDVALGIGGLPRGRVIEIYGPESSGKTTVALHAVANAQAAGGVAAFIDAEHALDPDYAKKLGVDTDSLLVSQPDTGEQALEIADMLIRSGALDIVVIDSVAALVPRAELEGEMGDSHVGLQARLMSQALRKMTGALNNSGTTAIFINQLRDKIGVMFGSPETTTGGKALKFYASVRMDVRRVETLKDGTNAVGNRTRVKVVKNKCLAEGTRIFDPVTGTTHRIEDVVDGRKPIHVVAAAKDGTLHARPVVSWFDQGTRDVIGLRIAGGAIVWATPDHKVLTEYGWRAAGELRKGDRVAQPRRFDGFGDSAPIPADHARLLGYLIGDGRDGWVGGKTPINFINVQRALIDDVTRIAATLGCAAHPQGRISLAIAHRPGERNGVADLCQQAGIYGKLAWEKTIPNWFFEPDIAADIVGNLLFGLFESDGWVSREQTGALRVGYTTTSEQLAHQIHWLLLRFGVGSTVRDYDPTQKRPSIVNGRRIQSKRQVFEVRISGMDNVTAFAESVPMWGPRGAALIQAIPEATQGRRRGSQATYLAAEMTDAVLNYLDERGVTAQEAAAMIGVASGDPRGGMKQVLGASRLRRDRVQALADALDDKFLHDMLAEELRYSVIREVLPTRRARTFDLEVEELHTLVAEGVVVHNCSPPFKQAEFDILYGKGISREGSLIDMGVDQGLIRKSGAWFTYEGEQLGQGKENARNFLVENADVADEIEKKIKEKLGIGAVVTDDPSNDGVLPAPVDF

Genome polyprotein = Genome polyprotein (dengue virus type 2, UniProt P29990); assay: Dengue-2 NS5 methyltransferase inhibitors, primary screen, biochemical, confirmation dose response (AID 588689); format: functional
[18] = Shn3 3'UTR reporter inhibitors, dose response, cell-based, Clone20 osteoblasts, firefly luciferase, cherry-picked (AID 624132); format: functional;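 note: firefly luciferase luminescence from reporter carrying the Shn3 3'UTR in osteoblasts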
[19] = biological target: Hepatocyte nuclear factor 4-alpha (Homo sapiens, UniProt P41235); format: functional, cell-based;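 note: biochemical luminescence-based dose-response counterscreen measuring inhibition of HNF4 dimerization, run alongside a screen for blockers of ABHD5–perilipin-5 interaction; split luciferase complementation of HNF4 fusion proteins in cell lysate measuring dimerization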
[20] = reduction of Shn3 3'UTR firefly luciferase signal, dose response, Schnurri-3 inhibitor project, cell-based, Clone20 osteoblasts, cherry-pick, set 2 (AID 720490); format: functional;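 note: actives lower the luminescence signal as inhibitors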

In the case of CC(=O)c1ccc(NCC(=O)N2CCN(c3ccccc3)CC2)cc1, the IC50 (Estrogen receptor) was 5.02 µM (active), the IC50 (Estrogen receptor beta [1]) was 2.64 µM (active) and the IC50 (Estrogen receptor beta [2]) was 37.1 µM (not active). The IC50 [3] was > 69.5 µM (not active).
For C1=C(c2c[nH]c3ccccc23)CCNC1, the EC50 [4] was > 50 µM (not active).
For O=c1[nH]/c(=N\c2ccc(Br)cc2)sc2ccc([N+](=O)[O-])cc12, the IC50 (SUMO-activating enzyme [5]) was 34.6 µM (active), the IC50 (SUMO-activating enzyme [6]) was 15.9 µM (active) and the EC50 [7] was 5.11 µM (active).
With S=c1[nH]nc(CSc2nc3ccccc3s2)n1C1CCCCC1 the IC50 [8] was 14.3 µM (not active) and the EC50 [9] was 9.55 µM (active).
In the case of N#C/C(=C\c1ccc(N2CCOCC2)o1)c1nc2ccccc2[nH]1, the EC50 [10] was > 100 µM (not active), the EC50 (HT-1080) was > 50 µM (not active) and the IC50 [11] was > 55.7 µM (not active). The EC50 (Troponin, cardiac muscle) was 0.5 µM (active) and the IC50 [12] was 12.2 µM (active).
With N#Cc1ccc(Nc2nc(-c3cccc(Br)c3)cs2)cc1 the IC50 [13] was > 50 µM (not active) and the IC50 [14] was > 50 µM (not active).
With Cn1cc(CN2CCN(c3ccc(Cl)cn3)CC2)c(-c2ccccc2F)n1 the IC50 [15] was > 100 µM (active).
For CCSc1nnc(NC(=O)c2nc(S(=O)(=O)Cc3ccc(F)cc3)ncc2Cl)s1, the EC50 [16] was 38.9 µM (active), the AC50 [17] was 0.419 µM (inconclusive) and the EC50 (Protein RecA) was 1.08 µM (inconclusive). The IC50 (Genome polyprotein) was 41.5 µM (active), the AC50 [18] was 4.96 µM (active) and the IC50 [19] was 5.51 µM (active). For the same molecule, the AC50 [20] was 1.68 µM (active).
